The results in this text go back to article doi:10.1101/2020.08.17.255026v1 (biorxiv, 2020).

Broadly, the IC50 is the midpoint of a concentration-inhibition curve. Broadly, the EC50 is the concentration at which the effect is half-maximal.

Experiment [1] concerns the target T1, PxRDL2 (Plutella xylostella, UniProt C0L7I7).
T1 sequence (C0L7I7 30-520): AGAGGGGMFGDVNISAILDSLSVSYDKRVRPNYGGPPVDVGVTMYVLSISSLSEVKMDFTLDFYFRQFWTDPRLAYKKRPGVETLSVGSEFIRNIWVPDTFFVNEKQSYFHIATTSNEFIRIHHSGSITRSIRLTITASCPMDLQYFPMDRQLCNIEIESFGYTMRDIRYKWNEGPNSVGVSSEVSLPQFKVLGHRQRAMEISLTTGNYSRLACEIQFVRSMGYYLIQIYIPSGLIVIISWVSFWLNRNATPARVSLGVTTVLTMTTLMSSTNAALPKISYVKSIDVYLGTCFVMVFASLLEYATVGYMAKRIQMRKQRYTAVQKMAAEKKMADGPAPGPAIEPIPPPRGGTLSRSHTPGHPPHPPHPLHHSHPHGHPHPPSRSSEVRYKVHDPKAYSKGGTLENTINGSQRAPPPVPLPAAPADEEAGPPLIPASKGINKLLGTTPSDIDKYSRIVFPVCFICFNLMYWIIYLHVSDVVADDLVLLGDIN
Description: two-electrode voltage clamp, Xenopus oocytes. The experiment is classed as cell-based.

Experiment [2] has as its target T2, PxRDL1 (Plutella xylostella, UniProt C0L7I5).
T2 sequence (C0L7I5 26-485): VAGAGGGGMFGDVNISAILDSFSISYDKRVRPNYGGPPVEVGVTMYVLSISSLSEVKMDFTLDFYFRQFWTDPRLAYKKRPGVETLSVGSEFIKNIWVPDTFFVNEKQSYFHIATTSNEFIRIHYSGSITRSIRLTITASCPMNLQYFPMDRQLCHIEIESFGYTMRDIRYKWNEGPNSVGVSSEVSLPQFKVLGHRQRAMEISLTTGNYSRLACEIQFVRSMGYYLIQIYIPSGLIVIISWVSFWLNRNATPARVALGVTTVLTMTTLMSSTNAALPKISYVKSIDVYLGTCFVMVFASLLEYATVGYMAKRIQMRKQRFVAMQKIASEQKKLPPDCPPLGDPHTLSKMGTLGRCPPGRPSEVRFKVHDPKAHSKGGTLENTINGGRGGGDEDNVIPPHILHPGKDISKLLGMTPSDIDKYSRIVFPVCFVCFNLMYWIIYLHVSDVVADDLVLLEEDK
Description: cell-based. Also noted: species or system Xenopus laevis oocytes.

The target in experiment [3] is T1, PxRDL2. Description: two-electrode voltage clamp, Xenopus oocytes. Type of experiment: cell-based. The source holds these as a separate data set.
Experiment [4] deals with T2, PxRDL1. Kind of experiment: cell-based. Also noted: species or system Xenopus laevis oocytes. The source holds these as a separate data set.

On to `N#Cc1nn(-c2c(Cl)cc(C(F)(F)F)cc2Cl)c(N)c1[S+]([O-])C(F)(F)F` (stereo not shown) [fipronil], for which the IC50 on PxRDL2 [1] came out at 5.23 µM; at PxRDL1 [2] it was 0.13 ± 0.01 µM.

Take `NCCCC(=O)O` [GABA]: the concentration for a half-maximal effect (EC50) on PxRDL2 [3] stood at 153 µM; on PxRDL1 [4] it was 20.8 ± 5.99 µM.
